In paper PMC7956476, “Quinoline Functionalized Schiff Base Silver (I) Complexes: Interactions with Biomolecules and In Vitro Cytotoxicity, Antioxidant and Antimicrobial Activities” (Molecules, 2021):

Key:
calf thymus DNA (CT-DNA) = experiment: CT-DNA electronic absorption titration (Wolfe–Shimer); assay type: binding; details: intrinsic binding constant, absorption titration, PBS pH 7.2
Experimental: The interaction of the L1–L5 and complexes Q1–Q15 with calf thymus-DNA was carried out in a Phosphate buffer saline solution pH 7.2 stored at 4 °C. The DNA stock solution was prepared by dissolving CT-DNA sodium salt in Phosphate buffer saline solution with continuous stirring overnight. It was filtered and stored at 4 °C and used within four days. […] A fixed amount of the L1–L5 and complexes Q1–Q15 (50 µM) were prepared by dissolving an appropriate amount in DMSO. […] Therefore, in all the experimental of the interaction of L1–L5 and complexes Q1–Q15 with biomolecules, the final concentration of DMSO in the incubation mixture was ~2% (v/v).
The binding modes of L1–L5 and complexes Q1–Q15 to CT-DNA were characterized through electronic absorption titration by varying concentrations of CT-DNA (0–30 µM) in phosphate buffer saline solution against fixed concentrations (20 µM) of L1–L5 and complexes Q1–Q15. […] The absorbance of CT-DNA is cancelled by adding equivalent amounts of CT-DNA to both the tested compounds and the reference solutions.

[1] = test system: Salmonella typhimurium ATCC 14026; experiment: Minimum inhibitory concentration (MIC), spotting on Müeller–Hinton agar; assay type: cell-based; details: Gram − Ve, S. typhi, 37 °C, 18 h; for MIC: Salmonella enterica, read-out: Minimum inhibitory concentration, ST
Experimental: (§1) Sterilized Nutrient agar medium was first prepared by dissolving 38 g of Müeller–Hinton agar (MHA) (Biolab, Midrand, Africa) in distilled water (1 L). […] The cooled Agar medium was poured in Petri dishes while ensuring a uniform 4 mm depth of the medium and cooling further to ambient temperature.
(§2) These bacteria were inoculated in a sterilized Nutrient Broth (NB) (Biolab, Midrand, Africa) through streak plate technique and incubated at 37 °C for 18 h. The nutrient broth was sterilized by dissolving 1.3 g in distilled water (100 mL). Ca. 10 mL of the nutrient broth was transferred into a cotton wool-plugged test tubes and wrapped with an aluminium foil. […] Following this was the isolation of a single colony of the bacteria and inoculated into a 10 mL sterile NB which was then incubated in a shaking incubator at 37 °C for 18 h. Each of the bacteria strain concentrations was adjusted with sterile distilled water to get a final concentration of 1.5 × 10^8 cfu/mL, i.e., 0.5 Mc Farland’s Standard using a densitometer (Mc Farland Latvia). The bacteria were lawn inoculated on the set MHA Petri dishes using a sterile cotton swab. Screening of L1–L5 and Q1–Q15 for antibacterial activity was first carried out by spotting 5 µL of their solution (prepared from the dissolution of 1000 µg of the L1–L5 and Q1–Q15 in 1 mL dimethyl sulfoxide (DMSO)) on an MHA petri dish and incubated at 37 °C for 18 h. The antibacterial activity was determined by looking out for a clear zone at the spotting point.

[2] = test system: Escherichia coli ATCC 25922; experiment: as above; assay type: cell-based; details: Gram − Ve, E. coli, 37 °C, 18 h
Experimental: as §1, §2

[3] = Ferric reducing antioxidant power (FRAP) assay; assay type: biochemical; details: done in triplicate
Description: Antioxidants are important in protecting the human body against damage by reactive oxygen species (ROS). Accumulation of ROS in the cells may lead to damage of the DNA, RNA, and proteins which subsequently leads to several physiological disorders such as cardiovascular disease, diabetes, rheumatism, atherosclerosis, cancer, aging and cell death. […] The free radical scavenging ability of all ligands and complexes in this study were investigated using ferric reducing antioxidant power (FRAP). In antioxidant studies, FRAP assay is often preferred because it is simple, fast, economical, and direct in antioxidant measurement. FRAP assay is based on the electron-donating ability of an antioxidant compound. This involves the reduction of a colorless Fe^3+ tripyridyltriazine complex (Fe^3+ (TPTZ)) to an intense blue-colored Fe^2+ tripyridyltriazine complex (Fe^2+ (TPTZ)) by the electron-donating antioxidants at low pH [69]. The reducing power is to determine the reductive ability of the test compounds.
Antioxidant activity studies of L1–L5 and Q1–Q15 were done using ferric reducing antioxidant power (FRAP) assay. The ferric reducing antioxidant power assay is often used to evaluate the ability of an antioxidant to donate an electron. […] The resulting mixture was incubated at 50 °C for 20 min, and 2.5 mL of 10% trichloroacetic acid was added to acidify the mixture. After that, 1 mL of the acidified mixture was added to 1 mL of distilled water and 0.5 mL of 0.1% FeCl3. The absorbance of the resulting solution was then measured at 700 nm. The antioxidant power of the compounds was expressed as a percentage of ferric reducing antioxidant power Ascorbic acid equivalent, as shown in Equation (4). (4) % FRAP =Absorbance of Absorbance of Sample/Absorbance of Ascorbic Acid ×100

[4] = test system: Pseudomonas aeruginosa ATCC 27853; experiment: Minimum inhibitory concentration (MIC), spotting on Müeller–Hinton agar; assay type: cell-based; details: Gram − Ve, P. aeruginosa, 37 °C; for Minimum inhibitory concentration, PA: 18 h
Experimental: as §1, §2

[5] = test system: Staphylococcus aureus ATCC 700699 (methicillin-resistant); experiment: as above; assay type: cell-based; details: Gram + Ve; methicillin-resistant S. aureus; 37 °C, 18 h
Experimental: as §1, §2

CT-DNA-EB adduct = experiment: Fluorescence competitive displacement of ethidium bromide from CT-DNA; assay type: binding, calf; details: for CT-DNA-EB-Complex Ksv (M^−1) × 10^4: Stern–Volmer quenching constant, EB displacement, 25 °C; for CT-DNA-EB-Complex Kq (M^−1S^−1) × 10^12: bimolecular quenching constant, Ksv = Kqτo, τo 10^−8 s; for CT-DNA-EB-Complex Kbin (M^−1) × 10^5: binding constant from double-logarithmic plot
Description: The Stern–Volmer plot approach was used based on the fact that the Stern–Volmer plots for Q1–Q15 (Figure 5c), were linear an indication of only one mechanism for the quenching fluorescence, i.e., either dynamic or static. […] (1) Ksv=Kqτo where Ksv, Kq, and τo represent Stern–Volmer quenching constant, bimolecular quenching constant, and an average lifetime of the fluorophore in the absence of the quencher, respectively. τₒ normally takes about 10^−8 s in biomacromolecules.
The double-logarithmic Equation (2) was used in determining the binding constant of complexes Q1–Q15 and CT-DNA. (2) logFo−F/F=logKb+n logQ
A competitive displacement study was carried out using fluorescence spectroscopy between CT-DNA pre-treated with ethidium bromide (EB) and complexes Q1–Q15 to establish the complexes′ actual mode of binding to CT-DNA. […] The competitive luminescence displacement assay was done using a modified method. Pre-treated 15 µM solution of EB with 15 µM of CT-DNA was prepared in a phosphate buffer of pH 7.2 and left to equilibrate for 30 min. Keeping CT-DNA-EB concentrations constant, different concentrations (0–20 µM) of the complexes were added at 8 min incubation interval at room temperature. The fluorescence quenching ability of CT-DNA bound EB by the complexes were recorded in the wavelength range of 530–700 nm with an excitation wavelength at 525 nm at 25 °C. (6) Fo/F=1+KSVQ=1+KqτoQ
A Stern–Volmer (Equation (6)) was used to evaluate the CT-DNA-EB fluorescence quenching of the complexes. Where Fo and F denote the relative fluorescence intensities of CT-DNA in the absence and presence of the quencher, Ksv, Stern–Volmer quenching constant, [Q], quencher concentration, Kq, bimolecular quenching constant and τo, average lifetime of the fluorophore in the absence of the quencher which is typically equal to 10^−8 s in biomacromolecules.

[6] = target: bovine serum albumin (BSA) (Bos taurus, UniProt P02769); experiment: Albumin binding by absorption spectroscopy titration
Description: Bovine serum albumin (BSA) was used as the protein standard in this study because of its close resemblance to human serum albumin (HSA), its stability, high solubility, neutrality in many biochemical reactions and low cost. In protein binding study, absorption spectroscopy titration is a known method used in studying the conformational changes in proteins, and this protein is characterized by an intense absorbance peak at 280 nm depicting the microenvironment around tyrosine and tryptophan residue polarity.
The absorbance assay of albumin binding is a very simple method used in identifying the conformational changes in protein. […] A stock solution of bovine serum albumin (BSA) was prepared by dissolving an appropriate amount of BSA in phosphate buffer saline solution (pH 7.2) under constant stirring for 1 h at 25 °C. It was kept at 4 °C and used within four days. […] The stock solution of the complex was prepared by dissolving 1 mmol of the complexes in DMSO. The absorption titration assay was done by adding different concentrations (0–10 µM) of the complexes to a constant BSA concentration (6 µM). The sample solution was incubated after each addition of the concentrations for 10 min at 25 °C before recording the absorbance at λmax 280 nm.

bovine serum albumin (BSA), sequence (P02769 25-607): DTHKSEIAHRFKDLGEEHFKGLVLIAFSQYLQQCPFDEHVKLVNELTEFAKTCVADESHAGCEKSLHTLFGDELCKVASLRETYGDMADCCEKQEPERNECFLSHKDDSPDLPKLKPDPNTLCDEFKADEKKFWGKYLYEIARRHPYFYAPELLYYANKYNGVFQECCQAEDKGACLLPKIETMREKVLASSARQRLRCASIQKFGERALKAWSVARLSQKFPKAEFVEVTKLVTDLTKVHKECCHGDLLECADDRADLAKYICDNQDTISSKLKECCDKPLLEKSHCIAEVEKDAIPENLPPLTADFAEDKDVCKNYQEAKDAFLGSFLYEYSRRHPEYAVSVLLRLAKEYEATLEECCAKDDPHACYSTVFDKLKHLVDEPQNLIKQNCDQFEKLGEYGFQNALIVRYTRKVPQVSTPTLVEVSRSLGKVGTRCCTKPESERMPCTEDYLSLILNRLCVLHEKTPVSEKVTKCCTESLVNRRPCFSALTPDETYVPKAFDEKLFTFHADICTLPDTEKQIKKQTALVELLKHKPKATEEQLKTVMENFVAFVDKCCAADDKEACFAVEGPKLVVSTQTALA

Compound | CT-DNA-Cmp. Kb (M^−1) × 10^5 (calf thymus DNA (CT-DNA)) | MIC [1] [µg/mL] | MIC ([2]; Escherichia coli, ATCC25922, read-out: Minimum inhibitory concentration, EC) [µg/mL] | Antioxidant (IC50 mg/mL) FRAP [3] [mg/mL] | MIC ([4]; Pseudomonas aeruginosa, ATCC27853, 18 h, read-out: Minimum inhibitory concentration, PA) [µg/mL] | Minimum inhibitory concentration, MRSA [5] [µg/mL] | Minimum inhibitory concentration, ST [1] [µg/mL] | Minimum inhibitory concentration, EC [2] [µg/mL] | Minimum inhibitory concentration, PA [4] [µg/mL] | CT-DNA-EB-Complex Ksv (M^−1) × 10^4 (CT-DNA-EB adduct) | CT-DNA-EB-Complex Kq (M^−1S^−1) × 10^12 (CT-DNA-EB adduct) | CT-DNA-EB-Complex Kbin (M^−1) × 10^5 (CT-DNA-EB adduct) | Protein-Complex Kb (M^−1) × 10^4 [6]
Cc1ccc(/N=C/c2ccc3ccccc3n2)cc1 [Complex L4, (E)-1-(quinolin-2-yl)-N-(p-tolyl)methanimine] | 1.60 (M^−1) × 10^5 | 1000 | 1000 | 4.50 ± 0.0053 |  |  |  |  |  |  |  |  | 
C(=N\Cc1cccs1)/c1ccc2ccccc2n1 [Complex L5, (E)-1-(quinolin-2-yl)-N-(thiophen-2-ylmethyl)methanimine] | 1.17 (M^−1) × 10^5 | 50 |  | 3.79 ± 0.0052 | 100 |  |  |  |  |  |  |  | 
Cc1ccc(N=Cc2ccc3ccccc3n2)cc1.Cc1ccc(N=Cc2ccc3ccccc3n2)cc1.O=[N+]([O-])[O-].[Ag+] [Complex Q4, [Ag(L4)2]NO3] | 4.00 (M^−1) × 10^5 |  |  | 2.14 ± 0.0035 |  | 50 | 50 | 12.5 | 12.5 | 3.50 (M^−1) × 10^4 | 3.50 (M^−1S^−1) × 10^12 | 2.11 (M^−1) × 10^5 | 10.3 (M^−1) × 10^4
O=S(=O)([O-])C(F)(F)F.[Ag+].c1ccc2nc(-c3nc4ccccc4s3)ccc2c1.c1ccc2nc(-c3nc4ccccc4s3)ccc2c1 [Complex Q12, [Ag(L2)2]CF3SO3] | 4.50 (M^−1) × 10^5 |  |  | 1.86 ± 0.024 |  | 50 | 50 | 25 | 12.5 | 3.14 (M^−1) × 10^4 | 3.14 (M^−1S^−1) × 10^12 | 2.12 (M^−1) × 10^5 | 20.7 (M^−1) × 10^4
C(=NCc1cccs1)c1ccc2ccccc2n1.C(=NCc1cccs1)c1ccc2ccccc2n1.O=S(=O)([O-])C(F)(F)F.[Ag+] [Complex Q15, [Ag(L5)2]CF3SO3] | 4.00 (M^−1) × 10^5 |  |  | 3.35 ± 0.012 |  | 100 | 1000 | 25 | ~0.8 | 2.48 (M^−1) × 10^4 | 2.48 (M^−1S^−1) × 10^12 | 5.29 (M^−1) × 10^5 | 13.1 (M^−1) × 10^4
